The target in this assay is T1, human PAH with the R408W mutation (Homo sapiens, UniProt P00439, R408W).
T1 construct: expressed in transfected cells
T1 sequence (P00439 1-452 R408W): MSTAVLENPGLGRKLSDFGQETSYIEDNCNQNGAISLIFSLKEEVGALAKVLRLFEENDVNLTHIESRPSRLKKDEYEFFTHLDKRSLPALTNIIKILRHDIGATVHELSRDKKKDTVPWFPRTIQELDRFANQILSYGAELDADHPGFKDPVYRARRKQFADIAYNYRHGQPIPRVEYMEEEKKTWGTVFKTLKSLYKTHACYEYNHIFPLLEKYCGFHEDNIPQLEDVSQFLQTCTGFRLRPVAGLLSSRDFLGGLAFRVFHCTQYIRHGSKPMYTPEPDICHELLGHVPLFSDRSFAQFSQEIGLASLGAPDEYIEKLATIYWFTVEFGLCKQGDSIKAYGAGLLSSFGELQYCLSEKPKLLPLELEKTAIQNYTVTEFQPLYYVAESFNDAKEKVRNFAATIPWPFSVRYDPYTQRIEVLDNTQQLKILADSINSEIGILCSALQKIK
Nature of the assay: Cell Based Phenylalanine Flux Assay. Particulars: A375 cells expressing human R408W PAH; 24 hrs compound incubation; 13C-Tyrosine by LC-MS; average where tested multiple times; read-out: AC50.

29 compounds from patent US20250171438A1 (Agios Pharmaceuticals, Inc., priority 2022, published 2025) can be followed below.

Where only a bound is given, the exact number is not on record here.

Usually AC50 stands for the midpoint of the concentration-response curve, whichever way the signal moves.

For the compound `O=C(c1ccnn1C(F)F)N1CCc2[nH]cnc2[C@@H]1c1nc2c(F)cccc2s1` [Example 1740, (R)-(1-(difluoromethyl)-1H-pyrazol-5-yl)(4-(4-fluorobenzo[d]thiazol-2-yl)-6,7-dihydro-1H-imidazo[4,5-c]pyridin-5(4H)-yl)methanone], the AC50 lay in the range of 1000 to 5000 nM. Under `Cc1nn(C)c(Cl)c1C(=O)N1CCc2[nH]cnc2[C@@H]1c1nc2c(F)cccc2s1` [Example 1741, (R)-(5-chloro-1,3-dimethyl-1H-pyrazol-4-yl)(4-(4-fluorobenzo[d]thiazol-2-yl)-6,7-dihydro-1H-imidazo[4,5-c]pyridin-5(4H)-yl)methanone] stands 1000 to 5000 nM. Under `Cc1nn(C)c(Cl)c1C(=O)N1CCc2[nH]cnc2[C@H]1c1nc2c(F)cccc2s1` [Example 1742] stands under 500 nM. Under `Cn1ncc(C(=O)N2CCc3[nH]cnc3[C@H]2c2nc3c(F)cccc3s2)c1C(F)F` [Example 1743, (S)-(5-(difluoromethyl)-1-methyl-1H-pyrazol-4-yl)(4-(4-fluorobenzo[d]thiazol-2-yl)-6,7-dihydro-1H-imidazo[4,5-c]pyridin-5(4H)-yl)methanone] stands 500 to 1000 nM. For `O=C(c1oc(-c2ccc(F)cn2)nc1C(F)F)N1CCc2[nH]cnc2[C@@H]1c1nc2ccccc2s1` [Example 1745, (R)-(4-(benzo[d]thiazol-2-yl)-6,7-dihydro-1H-imidazo[4,5-c]pyridin-5(4H)-yl)(4-(difluoromethyl)-2-(5-fluoropyridin-2-yl)oxazol-5-yl)methanone], the AC50 lay within 500 to 1000 nM. Under `O=C(c1oc(-c2ccc(F)cn2)nc1C(F)F)N1CCc2[nH]cnc2[C@H]1c1nc2ccccc2s1` [Example 1746] stands under 500 nM; under `O=C(c1nnc(-c2ccccn2)o1)N1CCc2[nH]cnc2[C@@H]1c1nc2cc(F)ccc2s1` [Example 1747, (R)-(4-(5-fluorobenzo[d]thiazol-2-yl)-6,7-dihydro-1H-imidazo[4,5-c]pyridin-5(4H)-yl)(5-(pyridin-2-yl)-1,3,4-oxadiazol-2-yl)methanone], 500 to 1000 nM; under `O=C(c1nnc(-c2ccccn2)o1)N1CCc2[nH]cnc2[C@H]1c1nc2cc(F)ccc2s1` [Example 1748, (S)-(4-(5-fluorobenzo[d]thiazol-2-yl)-6,7-dihydro-1H-imidazo[4,5-c]pyridin-5(4H)-yl)(5-(pyridin-2-yl)-1,3,4-oxadiazol-2-yl)methanone], under 500 nM. Under `C[C@@H]1CN(C(=O)c2nnc(-c3cnn(C)c3)o2)[C@@H](c2nc3ccccc3s2)c2nc[nH]c21` [Example 1749, ((4R,7R)-4-(benzo[d]thiazol-2-yl)-7-methyl-6,7-dihydro-1H-imidazo[4,5-c]pyridin-5(4H)-yl)(5-(1-methyl-1H-pyrazol-4-yl)-1,3,4-oxadiazol-2-yl)methanone] stands 1000 to 5000 nM; under `C[C@@H]1CN(C(=O)c2nnc(-c3cnn(C)c3)o2)[C@H](c2nc3ccccc3s2)c2nc[nH]c21` [Example 1750, ((4S,7R)-4-(benzo[d]thiazol-2-yl)-7-methyl-6,7-dihydro-1H-imidazo[4,5-c]pyridin-5(4H)-yl)(5-(1-methyl-1H-pyrazol-4-yl)-1,3,4-oxadiazol-2-yl)methanone], 500 to 1000 nM; under `C[C@H]1CN(C(=O)c2nnc(-c3cnn(C)c3)o2)[C@@H](c2nc3ccccc3s2)c2nc[nH]c21` [Example 1751, ((4R,7S)-4-(benzo[d]thiazol-2-yl)-7-methyl-6,7-dihydro-1H-imidazo[4,5-c]pyridin-5(4H)-yl)(5-(1-methyl-1H-pyrazol-4-yl)-1,3,4-oxadiazol-2-yl)methanone], over 5000 nM. Regarding `C[C@H]1CN(C(=O)c2nnc(-c3cnn(C)c3)o2)[C@H](c2nc3ccccc3s2)c2nc[nH]c21` [Example 1752, ((4S,7S)-4-(benzo[d]thiazol-2-yl)-7-methyl-6,7-dihydro-1H-imidazo[4,5-c]pyridin-5(4H)-yl)(5-(1-methyl-1H-pyrazol-4-yl)-1,3,4-oxadiazol-2-yl)methanone], the AC50 was in the range of 500 to 1000 nM. `C[C@@H]1CN(C(=O)c2nnc(-c3ccc(F)cn3)o2)[C@@H](c2nc3ccccc3s2)c2nc[nH]c21` [Example 1753, ((4R,7R)-4-(benzo[d]thiazol-2-yl)-7-methyl-6,7-dihydro-1H-imidazo[4,5-c]pyridin-5(4H)-yl)(5-(5-fluoropyridin-2-yl)-1,3,4-oxadiazol-2-yl)methanone]: the AC50 lay within 1000 to 5000 nM. Then `C[C@@H]1CN(C(=O)c2nnc(-c3ccc(F)cn3)o2)[C@H](c2nc3ccccc3s2)c2nc[nH]c21` [Example 1754, ((4S,7R)-4-(benzo[d]thiazol-2-yl)-7-methyl-6,7-dihydro-1H-imidazo[4,5-c]pyridin-5(4H)-yl)(5-(5-fluoropyridin-2-yl)-1,3,4-oxadiazol-2-yl)methanone], with 500 to 1000 nM; and `C[C@H]1CN(C(=O)c2nnc(-c3ccc(F)cn3)o2)[C@@H](c2nc3ccccc3s2)c2nc[nH]c21` [Example 1755, ((4R,7S)-4-(benzo[d]thiazol-2-yl)-7-methyl-6,7-dihydro-1H-imidazo[4,5-c]pyridin-5(4H)-yl)(5-(5-fluoropyridin-2-yl)-1,3,4-oxadiazol-2-yl)methanone], with over 5000 nM. Then `C[C@H]1CN(C(=O)c2nnc(-c3ccc(F)cn3)o2)[C@H](c2nc3ccccc3s2)c2nc[nH]c21` [Example 1756, ((4S,7S)-4-(benzo[d]thiazol-2-yl)-7-methyl-6,7-dihydro-1H-imidazo[4,5-c]pyridin-5(4H)-yl)(5-(5-fluoropyridin-2-yl)-1,3,4-oxadiazol-2-yl)methanone], with 1000 to 5000 nM; and `O=C(c1ccnn1-c1ccccn1)N1CCc2[nH]cnc2[C@H]1c1nc2c(F)cccc2s1` [Example 1757, (S)-(4-(4-fluorobenzo[d]thiazol-2-yl)-6,7-dihydro-1H-imidazo[4,5-c]pyridin-5(4H)-yl)(1-(pyridin-2-yl)-1H-pyrazol-5-yl)methanone], with 500 to 1000 nM; and `Cc1nc(Br)c(C(=O)N2CCc3[nH]cnc3[C@@H]2c2nc3c(F)cccc3s2)o1` [Example 1759, (R)-(4-bromo-2-methyloxazol-5-yl)(4-(4-fluorobenzo[d]thiazol-2-yl)-6,7-dihydro-1H-imidazo[4,5-c]pyridin-5(4H)-yl)methanone], with 1000 to 5000 nM. Under `Cc1nc(Br)c(C(=O)N2CCc3[nH]cnc3[C@H]2c2nc3c(F)cccc3s2)o1` [Example 1760] stands under 500 nM.

Take `CN(C)CCn1nccc1C(=O)N1CCc2[nH]cnc2[C@H]1c1nc2c(F)cccc2s1` [Example 1761, (S)-(1-(2-(dimethylamino)ethyl)-1H-pyrazol-5-yl)(4-(4-fluorobenzo[d]thiazol-2-yl)-6,7-dihydro-1H-imidazo[4,5-c]pyridin-5(4H)-yl)methanone]: the AC50 is 500 to 1000 nM.

In the case of `CN(C)CCn1nccc1C(=O)N1CCc2[nH]cnc2[C@@H]1c1nc2c(F)cccc2s1` [Example 1762, (R)-(1-(2-(dimethylamino)ethyl)-1H-pyrazol-5-yl)(4-(4-fluorobenzo[d]thiazol-2-yl)-6,7-dihydro-1H-imidazo[4,5-c]pyridin-5(4H)-yl)methanone], the AC50 is 1000 to 5000 nM. In the case of `O=C(c1cn(CC(F)(F)F)nc1Cl)N1CCc2[nH]cnc2[C@@H]1c1nc2c(F)cccc2s1` [Example 1763, (R)-(3-chloro-1-(2,2,2-trifluoroethyl)-1H-pyrazol-4-yl)(4-(4-fluorobenzo[d]thiazol-2-yl)-6,7-dihydro-1H-imidazo[4,5-c]pyridin-5(4H)-yl)methanone], the half-maximal activity concentration (AC50) was in the range of 1000 to 5000 nM. Then `O=C(c1cn(CC(F)(F)F)nc1Cl)N1CCc2[nH]cnc2[C@H]1c1nc2c(F)cccc2s1` [Example 1764, (S)-(3-chloro-1-(2,2,2-trifluoroethyl)-1H-pyrazol-4-yl)(4-(4-fluorobenzo[d]thiazol-2-yl)-6,7-dihydro-1H-imidazo[4,5-c]pyridin-5(4H)-yl)methanone], with 500 to 1000 nM; and `O=C(c1cnn(-c2ccccn2)c1Cl)N1CCc2[nH]cnc2[C@H]1c1nc2c(F)cccc2s1` [Example 1765], with 500 to 1000 nM.

As for `O=C(c1cnn(-c2ccccn2)c1Cl)N1CCc2[nH]cnc2[C@@H]1c1nc2c(F)cccc2s1` [Example 1766, (R)-(5-chloro-1-(pyridin-2-yl)-1H-pyrazol-4-yl)(4-(4-fluorobenzo[d]thiazol-2-yl)-6,7-dihydro-1H-imidazo[4,5-c]pyridin-5(4H)-yl)methanone], the AC50 lay within 1000 to 5000 nM. Then `O=C(c1nnc(-c2ccc(C(F)(F)F)cc2)o1)N1CCc2[nH]cnc2[C@@H]1c1nc2ccccc2s1` [Example 1767, (R)-(4-(benzo[d]thiazol-2-yl)-6,7-dihydro-1H-imidazo[4,5-c]pyridin-5(4H)-yl)(5-(4-(trifluoromethyl)phenyl)-1,3,4-oxadiazol-2-yl)methanone], with 1000 to 5000 nM. Turning to `O=C(c1nnc(-c2ccc(C(F)(F)F)cc2)o1)N1CCc2[nH]cnc2[C@H]1c1nc2ccccc2s1` [Example 1768], the AC50 was in the range of 500 to 1000 nM. Then `O=C(c1cn(-c2ccccn2)nc1Cl)N1CCc2[nH]cnc2[C@H]1c1nc2c(F)cccc2s1` [Example 1769], with 500 to 1000 nM; and `O=C(c1cn(-c2ccccn2)nc1Cl)N1CCc2[nH]cnc2[C@@H]1c1nc2c(F)cccc2s1` [Example 1770, (R)-(3-chloro-1-(pyridin-2-yl)-1H-pyrazol-4-yl)(4-(4-fluorobenzo[d]thiazol-2-yl)-6,7-dihydro-1H-imidazo[4,5-c]pyridin-5(4H)-yl)methanone], with 1000 to 5000 nM.
